{"source": "paper PMC3049581", "about": "“Development and evaluation of human AP endonuclease inhibitors in melanoma and glioma cell lines” (British Journal of Cancer, 2011)", "key": {"[1]": {"biological_target": "T1, D148E polymorphic variant of APE1 (Homo sapiens, UniProt P27695, D148E)", "T1 construct": "made in house", "T1 sequence (P27695 whole entry D148E)": "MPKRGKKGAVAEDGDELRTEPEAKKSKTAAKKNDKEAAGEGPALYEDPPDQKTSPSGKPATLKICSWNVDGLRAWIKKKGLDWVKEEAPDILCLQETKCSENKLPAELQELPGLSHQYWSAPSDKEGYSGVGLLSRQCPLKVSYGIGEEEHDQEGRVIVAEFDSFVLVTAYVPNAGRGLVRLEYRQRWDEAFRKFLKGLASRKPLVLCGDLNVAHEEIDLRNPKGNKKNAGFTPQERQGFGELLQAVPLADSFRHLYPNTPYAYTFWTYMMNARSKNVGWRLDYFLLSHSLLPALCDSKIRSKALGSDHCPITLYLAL", "assay": "Fluorescence-based AP site cleavage assay, D148E polymorph", "assay_type": "biochemical", "description": "(§1) A fluorescence-based AP site cleavage assay was performed as described previously with slight modifications ([Madhusudan et al, 2005]). Briefly, APE1 (50 nM) (New England Biolabs) was incubated in a buffer system consisting of 50 mM Tris-HCl, pH 8.0, 1 mM MgCl2, 50 mM NaCl, 2 mM DTT at 37°C for 10 min. 5′-F-GCCCCCXGGGGACGTACGATATCCCGCTCC-3′ and its complementary Q-labelled oligonucleotide (see above) were annealed in a buffer containing 100 μM Tris-HCl, 50 mM NaCl and 1 μM EDTA. AP-site cleavage was initiated by addition of the annealed substrate (25 nM) to the reaction mix. Fluorescence readings were taken at 5 min intervals during 30 min incubation at 37°C using an Envision Multilabel reader from Perkins Elmer (Cambridge, UK) with a 495 nm excitation and a 512 nm emission filter. If the DNA is cleaved at the abasic site at position 7 from the 5′-end by APE1, the 6-mer fluorescein-containing product will dissociate from its complement by thermal melting. As a result, the quenching effect of the 3′ dabcyl (which absorbs fluorescein fluorescence when in close proximity) is lost, and APE1 activity is measured indirectly as an increase in fluorescence signal (Figure 2A). Similar assays were developed for monitoring the AP endonuclease activity of endonuclease IV using a buffering system containing 10 mM HEPES-KOH, pH 7.4, 100 mM KCl and 60 ng of endonuclease IV (Trevigen, Abingdon, UK). The final DMSO concentration was maintained at 1.2% in all assays.\nTo estimate IC50 for APE1 inhibition, the ability of the compounds to inhibit APE1 at a range of concentrations (10 nM–100 μM) were evaluated in black 384-well plates. The reactions were set up as before and fluorescence intensity was measured every 5 min for 30 min following reaction initiation. Using the initial rate values from the assay, percent activity was calculated for each sample relative to a negative DMSO only control. […]"}, "U89MG cells": {"tested_on": "U89MG cells", "assay": "Aldehyde reactive probe assay, genomic AP sites", "assay_type": "cell-based", "description": "AP sites were quantified as described previously ([Madhusudan et al, 2005]). Genomic DNA was extracted from a pellet of 1 × 10^6 cells using the guanidine/detergent lysis method. Briefly, 0.5 ml of DNAzol (Helena Biosciences, Gateshead, UK) was added to the pellet and the cell lysate was gently passed several times through a pipette. The resultant viscous solution was centrifuged at 10 000 g for 10 min at 25°C. DNA was precipitated from the supernatant using 0.25 ml of 100% ethanol by gently inverting the tube 5–8 times at room temperature for 1–3 min. The DNA was washed twice in 0.4 ml of 75% ethanol. The DNA was then solubilized in TE buffer (pH 8.0), and the final concentration was adjusted to 100 μg ml^−1 (using a Gene Quant pro spectrophotometer). AP-site determinations were performed on the genomic DNA using an aldehyde reactive probe assay kit using the protocol provided by the manufacturer (BioVision Research Products, Mountainview, CA, USA). Untreated cells were compared with cells exposed to either MMS alone, APE1 inhibitor alone or combination of MMS and APE1 inhibitor. DNA was extracted at 90 min and AP site quantified as described previously. All experiments were performed in triplicate."}, "melanoma cell lines": {"tested_on": "melanoma cell lines", "assay": "MTS assay, intrinsic cytotoxicity", "assay_type": "cell-based", "details": "120 h, MTS day 5, read-out: GI50 (cell growth inhibition)", "description": "(§2) MeWo, SKMel and MM418 melanoma cancer cell line were grown in RPMI culture medium (supplemented with penicillin 0.06 g l^−1, streptomycin 0.1 g l^−1 pH 7.0, 10% foetal bovine serum (FBS, PAA Cell Culture Company, Yeovil, Somerset, UK). U89 MG and SNB-19 glioma cell lines were grown in DMEM (supplemented with penicillin 0.06 g l^−1, streptomycin 0.1 g l^−1 pH 7.0, 10% foetal bovine serum (FBS, PAA Cell Culture Company). HUVEC endothelial cells were grown in a special media (199 Media+HAMS F12), and supplemented with 20% heat-inactivated foetal calf serum, 1% Hepes, 1% Glutamine, 12.5 μg Human EGF, 625 ng of Human bFGF, 3750 units of Heparin, penicillin 0.06 g l^−1, and streptomycin 0.1 g l^−1) Only cultures with a plating efficiency of over 70% were used for analyses.\n(§3) To evaluate intrinsic cytotoxicity and to evaluate the potentiation of toxicity of cytotoxic agents by APE1 inhibitors, MTS assays were performed as per the manufacturer's recommendation (Promega, Southampton, UK). Briefly, 2000 cells per well (in 200 μl of medium) were seeded into a 96-well plate. For HUVEC cells, 5 μl of 2% type 2 gelatine (Sigma) was added to the wells and the plates were preincubated for 20 min at 37°C before seeding of cells. For intrinsic cytotoxicity assessments, cells were incubated with varying concentrations of APE1 inhibitors and the MTS assay was performed on day 5. […] Non-radioactive cell proliferation assay was conducted as described previously."}, "glioma cell lines": {"tested_on": "glioma cell lines", "assay": "MTS assay, intrinsic cytotoxicity", "assay_type": "cell-based", "details": "120 h, MTS day 5, read-out: GI50 (cell growth inhibition)", "description": "as §2, §3"}, "E. coli endonuclease IV": {"biological_target": "T2, E. coli endonuclease IV (Escherichia coli, UniProt P0A6C1)", "T2 construct": "purchased Trevigen", "assay": "Fluorescence-based endonuclease IV cleavage assay (counter-screen)", "assay_type": "biochemical", "details": "tested at 100 μM", "description": "as §1\n(§4) APE1 was incubated with the candidate inhibitors at 100 μM (final DMSO concentration, 1.2%) before initiating the AP site cleavage assay described in the previous section. […] In addition, screening of potential inhibitors for their specificity (at 100 μM concentration) was performed using endonuclease IV cleavage assays."}, "[2]": {"biological_target": "T1, D148E polymorphic variant of APE1", "assay": "Radiolabelled oligonucleotide-based APE1 cleavage assay, D148E vs wild type", "assay_type": "biochemical", "details": "data not shown", "description": "This basic assay was performed as described previously ([Madhusudan et al, 2005]). Briefly, a radiolabelled uracil-containing oligonucleotide (5′-CTCGCAAGUGGGTACCGA-3′) was annealed to a complementary oligonucleotide. […] AP site cleavage reaction consisted of 50 nM APE1 and 0.75 ng reduced AP site double-stranded oligonucleotide incubated at 37°C for 1 h. The sample was resolved on a 15% TBE Criterion Pre Cast Gel (Bio-Rad, Hemel Hempstead, Herts, UK) and the radiolabelled substrate and reaction products were visualised using a phosphorImager (Molecular Dynamics, Buckinghamshire, UK)."}, "Human APE1": {"biological_target": "T3, Human APE1 (Homo sapiens, UniProt P27695)", "T3 construct": "purchased New England Biolabs", "T3 sequence (P27695 whole entry)": "as the sequence (P27695 whole entry D148E) above, with E148D counted along it", "assay": "Fluorescence-based AP site cleavage assay", "assay_type": "biochemical", "details": "APE1 50 nM, wild type", "description": "as §1, §4\nTo estimate IC50 for APE1 inhibition, the ability of the compounds to inhibit APE1 at a range of concentrations (10 nM–100 μM) were evaluated in black 384-well plates. The reactions were set up as before and fluorescence intensity was measured every 5 min for 30 min following reaction initiation. Using the initial rate values from the assay, percent activity was calculated for each sample relative to a negative DMSO only control. The data was fitted to a sigmoidal dose-response model using Graphpad Prism 3.0 (GraphPad Software, La Jolla, CA, USA) and IC50 values were determined using the formula: % Activity=100/(1+10^(log[I]−log IC 50))."}}}
{"smiles": "Cc1ccc(-c2nc(S(=O)(=O)c3ccccc3)c(SCC(=O)Nc3ccc(F)cc3)o2)cc1", "note": "[Compound 4, N-(4-fluorophenyl)-2-(4-phenylsulfonyl-2-(p-tolyl)oxazol-5-yl) sulfanyl-acetamide]", "values": [{"measurement": "IC50", "setting": "[1]; D148E polymorph, 50 nM protein, read-out: IC50 for APE1 inhibition, D148E protein", "value": 5.56, "unit": "µM"}, {"measurement": "reduction of IC50 for D148E protein compared with wild type", "setting": "[1]; D148E vs wild type", "value": 50.5, "unit": "%"}, {"measurement": "preferential inhibitory activity towards D148E compared with wild type", "setting": "[1]; fluorescence or radiolabelled assays", "value": "D148E was more sensitive to inhibition"}, {"measurement": "AP site content in genomic DNA, combination with MMS", "setting": "U89MG cells; 10 μM inhibitor + MMS 600 μM, 90 min", "value": "increased AP site content"}, {"measurement": "AP site accumulation in genomic DNA, inhibitor alone", "setting": "U89MG cells; 10 μM, DNA extracted at 90 min, vs untreated cells", "value": "accumulated AP sites"}, {"measurement": "GI50", "setting": "melanoma cell lines", "value": 20, "unit": "µM"}, {"measurement": "GI50", "setting": "glioma cell lines", "value": 17, "unit": "µM"}, {"measurement": "Endo IV inhibition", "setting": "E. coli endonuclease IV", "value": "no inhibition and None"}, {"measurement": "preferential inhibitory activity towards D148E protein, radiolabelled assay", "setting": "[2]", "value": "confirmed"}, {"measurement": "IC50", "setting": "Human APE1", "value": 11, "unit": "µM"}]}
